Read-outs that look alike come from different tables or passages of the source.
Key:
[1] = Method: (§1) A Compound of the Disclosure is incubated at 1 μM, 10 μM and 100 μM with pooled liver S9 fractions from human (mixed gender) and mouse (CD1) at 1.5 mg/mL in 300 μL buffer containing phosphate 100 mM, MgCl2 2 mM, pH 7.4 at 37° C. for 0, 10, 20, 40, 60 min.
(§2) Enzyme kinetic data for uptake and metabolism of a Compound of the Disclosure is analysed by fitting the Michaelis-Menten equation to the data. V0=Vmax[S]/Km+[S], where V0 is initial velocity, [S] is substrate concentration, Vmax is maximum velocity and Km is substrate concentration at half Vmax. All fitting is performed using GraphPad Prism 8.4 software (GraphPad Software Inc). No weighting scheme is applied.

[2] = remark: listed apart in the source
Method: as §1, §2

[3] = target: T1, monocarboxylate transporter (MCT1) (Homo sapiens, UniProt P53985); assay: Inhibition of MCT1 uptake of known substrate 2-thiophene glyoxylate; type: cell-based; design: expressed in transfected cells
T1 sequence (P53985 1-500): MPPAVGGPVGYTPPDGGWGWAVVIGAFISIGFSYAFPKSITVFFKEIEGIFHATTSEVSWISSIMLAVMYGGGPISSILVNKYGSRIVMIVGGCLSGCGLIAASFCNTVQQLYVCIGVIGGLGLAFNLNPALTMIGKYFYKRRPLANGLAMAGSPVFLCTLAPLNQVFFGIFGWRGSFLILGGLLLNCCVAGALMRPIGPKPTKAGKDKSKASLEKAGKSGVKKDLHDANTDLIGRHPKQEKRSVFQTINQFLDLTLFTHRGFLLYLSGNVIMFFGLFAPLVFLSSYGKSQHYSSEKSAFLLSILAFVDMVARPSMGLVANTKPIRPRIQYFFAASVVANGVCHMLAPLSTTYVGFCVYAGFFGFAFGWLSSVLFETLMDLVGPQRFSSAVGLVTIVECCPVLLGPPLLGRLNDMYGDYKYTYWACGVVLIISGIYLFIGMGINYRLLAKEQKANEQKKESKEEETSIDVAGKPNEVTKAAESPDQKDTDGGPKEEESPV
Method: FIG. 4(c) is a line graph showing concentration-inhibition curves for the inhibition of uptake of the known substrate 2-thiophene glyoxylate (500 μM) for MCT1. DMSO (0.5%) was the solvent control (SC) and the known inhibitor phloretin (500 μM) was the positive control (PC).
FIG. 4(d) is a line graph showing concentration-inhibition curves for the inhibition of uptake of the known substrate 2-thiophene glyoxylate (500 μM) for MCT1. DMSO (0.5%) was the solvent control (SC) and the known inhibitor phloretin (500 μM) was the positive control (PC).
The known probe substrates used as positive controls are 3 μM chlorothiazide for OAT1, 2 μM estrone-3-sulfate for OAT3, 10 μM gabapentin for LAT1, 50 μM Gly-Sar for PepT1, 500 μM thiophene-2-glyoxylic acid for MCT1.
The IC50 value for the test item is determined by fitting the Hill equation in the following form:
where A % is the percent activity remaining (the mean cellular uptake observed in the solvent control sample set to 100% and the mean cellular uptake observed in the presence of the positive control inhibitor set to 0%), Top and Bottom are the upper and lower plateau of A %. [I] is the inhibitor concentration and IC50 is the inhibitor concentration where the remaining activity is at the midpoint between the Top and Bottom.

human transporter MCT1 = target: T2, human transporter MCT1 (Homo sapiens, UniProt P53985); assay: Human MCT1-mediated transport in MDCK-II cells (Example 9); type: cell-based; conditions: MDCK-II cells expressing human MCT1, pH 5.5, 1 minute, normalized to Vmax of thiophene-2-glyoxylic acid
T2 construct: expressed in transfected cells; host or cells: MDCK-II
T2 sequence (P53985 1-500): T1 sequence (P53985 1-500)
Method: Representative Compounds of the Disclosure are tested in (i) MDCK-II cells expressing human transporter MCT1; and (ii) MDCK-II cells transfected with a control vector (GFP) as control cells for human transporter MCT1. 2-Thiophene-glyoxylic acid (TPGA) is the positive control for transport.
• 1. A stock solution is prepared with the test article (Compound of the Disclosure) in DMSO or in HBSS-Bis-Tris. • 2. Final assay solutions of probe substrate or test article contain 0.5% (v/v) DMSO (vehicle control). • 3. Test article concentrations are 10 μM, 30 μM, 100 μM, 300 μM, 1000 μM, 3000 μM, and 10000 μM.
MDCK-II cells are maintained in DMEM with low glucose and 10% FBS. Cells passages up to 40 are seeded at 60K±10K cells/well on 96-well, transwell membrane plates approximately 24 hours before transfection. Transport assays are carried out approximately 48 hours after transfection.
• 1. Test system: • a. Test system: 96-well cell culture plate with wells containing a monolayer of MDCK-II cells grown on a permeable support and a corresponding 96-well receiver tray. Cell plates are maintained at 37° C. in 5% CO2 atmosphere prior to initiation of the transport experiment. • b. Pre-incubation is conducted in HBSS, pH 7.4. Transport experiments are conducted in HBSS with Bis-Tris, pH 5.5, without phenol red. Pre-incubation and incubation are conducted at ambient temperatures. • c. Each condition is run in triplicate wells. • d. […] The result from the control cells is used to correct for substrate permeation by routes other than the transporter being investigated in the study. • 2. Prepare the 96-well plate as follows: • a. Wash the basal side of the culture plate insert with HBSS three times. After the final wash, blot the basal side of the wells and keep this side dry. • b. Wash the culture plate wells with HBSS three times. The wells of the culture plate serve as the apical compartment. • 3. Aspirate the final wash from the culture plate. The wells of the culture plate serve as the apical compartment. Add 100 μL of HBSS pH 7.4 pre-incubation buffer containing vehicle to the apical compartments. • 4. Incubate the plates with orbital shaking at approximately 60 RPM for the pre-incubation time specified in Table 1 of this protocol. • 5. Aspirate the pre-incubation buffer from the apical compartment of the plates. Add 100 μL of the experimental buffer that is prepared as follows and maintained at ambient temperatures. • a. For the probe substrate transport assay, the HBSS with Bis-Tris, pH 5.5 in each well contains the probe substrate at 500 μM (positive control for transport) and vehicle control. • b. For the test article assays, the HBSS with Bis-Tris, pH 5.5 in each well contains the test article at 10 μM, 30 μM, 100 μM, 300 μM, 1000 μM, 3000 μM, and 10000 μM. • 6. Incubate at ambient temperature with orbital shaking at approximately 60 RPM for the incubation time of 1 minute. • 7. […]
• 1. The amount of radiolabeled probe substrate will be quantified with radiometric detection on a 1450 Microbeta (Perkin-Elmer). • 2. The amount of non-radiolabeled probe substrate or test article will be quantified by LC-MS/MS. • 3. […] For uptake assays, the net transporter-mediated uptake rate (V) of the substrate by each SLC transporter will be calculated as follows:
[formula] • 5. For transport kinetics assessment, Km and Vmax will be calculated by non-linear regression using the Michaelis-Menten equation. • 6. […]

LAT1 = target: T3, LAT1 (Homo sapiens, UniProt Q01650); assay: LAT1 transporter-mediated cellular uptake (substrate test); type: cell-based; conditions: uptake 3 min, 37° C.
T3 construct: expressed in transfected cells
T3 sequence (Q01650 whole entry): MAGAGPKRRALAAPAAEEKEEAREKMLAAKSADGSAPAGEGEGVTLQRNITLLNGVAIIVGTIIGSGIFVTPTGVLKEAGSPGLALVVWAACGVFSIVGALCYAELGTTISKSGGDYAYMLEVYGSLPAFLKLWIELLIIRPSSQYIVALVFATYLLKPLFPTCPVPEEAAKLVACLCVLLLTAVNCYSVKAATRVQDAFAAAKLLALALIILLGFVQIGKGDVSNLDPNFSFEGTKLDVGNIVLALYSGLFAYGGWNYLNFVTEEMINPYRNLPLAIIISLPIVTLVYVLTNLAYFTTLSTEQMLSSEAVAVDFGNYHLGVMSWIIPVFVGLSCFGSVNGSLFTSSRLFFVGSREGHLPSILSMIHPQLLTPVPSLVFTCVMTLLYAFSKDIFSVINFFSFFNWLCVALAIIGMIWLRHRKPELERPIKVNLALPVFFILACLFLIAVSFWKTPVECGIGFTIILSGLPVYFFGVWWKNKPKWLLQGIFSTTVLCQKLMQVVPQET
T3 sequence (P08195 102-630 partner): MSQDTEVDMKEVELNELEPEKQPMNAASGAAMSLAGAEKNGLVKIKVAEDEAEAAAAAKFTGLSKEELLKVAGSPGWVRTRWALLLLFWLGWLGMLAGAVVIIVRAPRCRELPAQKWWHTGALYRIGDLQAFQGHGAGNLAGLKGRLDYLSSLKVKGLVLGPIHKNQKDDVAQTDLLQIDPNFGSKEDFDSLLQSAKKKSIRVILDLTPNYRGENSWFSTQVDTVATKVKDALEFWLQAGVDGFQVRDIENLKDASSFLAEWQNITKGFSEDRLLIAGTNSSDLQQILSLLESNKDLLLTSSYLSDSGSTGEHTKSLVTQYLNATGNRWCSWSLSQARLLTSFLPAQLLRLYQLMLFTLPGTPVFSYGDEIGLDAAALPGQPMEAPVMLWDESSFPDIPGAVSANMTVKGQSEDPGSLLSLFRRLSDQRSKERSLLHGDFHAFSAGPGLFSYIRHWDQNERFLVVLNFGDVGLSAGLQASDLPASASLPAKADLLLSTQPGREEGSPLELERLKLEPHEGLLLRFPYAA
Method: DMSO (0.5%) was the solvent control (SC) and the known inhibitor for the positive control (PC) was JPH203 (10 μM). Data were fit to either the Michaelis-Menten equation for uptake or the Hill equation for inhibition using the solvent control to define the top and the positive control inhibitor to define the bottom. Symbols represent the mean±SEM, n=3.
Human OAT1 (SLC22A6) and OAT3 (SLC22A8) overexpressing HEK-293 cells and control cells without transfected transporter (Corning® TransportoCells™) are plated to 24-well plates and cellular uptake of 10 to 100 μg/mL of a Compound of the Disclosure is measured in the absence and presence of transporter inhibitors. Uptake of a Compound of the Disclosure into control cells is measured only without chemical inhibitors. […] Cells are grown in DMEM (Gibco 4196, high glucose, without sodium pyruvate) supplemented with MEM non-essential amino acids and 10% fetal bovine serum. Cells are re-fed with fresh medium after attachment (4-6 hours post-seeding). Cell are plated at a density of 4×10^5/well in 24-well plates coated with poly-D-lysine. Transporter assays are conducted in 400 μL of HBSS supplemented with 10 mM Hepes, pH 7.4
The known probe substrates used as positive controls are 3 μM chlorothiazide for OAT1, 2 μM estrone-3-sulfate for OAT3, 10 μM gabapentin for LAT1, 50 μM Gly-Sar for PepT1, 500 μM thiophene-2-glyoxylic acid for MCT1. […]

[4] = test system: glycosphingolipid (GSL) biosynthesis; conditions: LSDs; cited from earlier work
[5] = substrate: CC(=O)N[C@H](CC(C)C)C(=O)O; assay: cells, lysate or membranes; conditions: other: uptake 1 min, room temperature

In the case of `[2H]C([2H])([2H])C([2H])(C([2H])([2H])[2H])C([2H])([2H])C([2H])(NC(C)=O)C(=O)O` (racemic) [N-acetyl-DL-[^2H10]leucine], the “Vmax, metabolism” value [1] is reported as 6.8 µmol/min/mg, the “disappearance, asymptote as % of the initial concentration” value [1] is reported as ~50% and the “Vmax, metabolism” value [2] is reported as 2.6 µmol/min/mg. For the same molecule, the “disappearance, asymptote as % of the initial concentration” value [2] was ~50%.

Molecule `CC(=O)N[C@H](CC(C)C)C(=O)O` [N-acetyl-D-leucine] has a Ki ([3]; assuming competitive inhibition, read-out: affinity (Ki) for MCT1, Cheng-Prusoff equation) of 1.6 mM and an IC50 ([3]; probe substrate 2-thiophene glyoxylate 500 μM) of 11 mM.

With `COC(=O)[C@H](CC(C)C)NC(C)=O` [N-acetyl-L-leucine methyl ester] the “uptake mediated by MCT1” value (human transporter MCT1) was “greatly reduced transport”.

In the case of `COC(=O)[C@@H](NC(C)=O)C(C)C` [N-acetyl-L-valine methyl ester], the “uptake mediated by MCT1” value (human transporter MCT1) is reported as “greatly reduced transport”.

With `CC(=O)N[C@@H](CC(C)C)C(=O)O` [N-acetyl-leucine] the “substrate of LAT1 (uptake)” value (LAT1) was “neither a substrate”.

In the case of `CCC(=O)N[C@H](C(=O)O)[C@@H](C)CC` [N-propionyl-L-isoleucine], the “uptake mediated by MCT1” value (human transporter MCT1) is reported as “transported”.

In the case of `CCC(=O)N[C@H](C(=O)O)C(C)C` [N-propionyl-L-valine], the “uptake mediated by MCT1” value (human transporter MCT1) is reported as “transported”.

For `CCCCN1C[C@H](O)[C@@H](O)[C@H](O)[C@H]1CO` [miglustat], the “benefit in clinical trial of substrate reduction therapy” value [4] is given as “Some benefit”.

B1: monocarboxylate transporter (MCT1) (Homo sapiens) (protein)
chain: T1 sequence (P53985 1-500)
Work on B1 yielded a Km [5] of 1000 µM.
